The text below walks through data of ChEMBL document CHEMBL1127400 (J Med Chem, 1994).

Assay [1] can be described thus: Tested for its ability to inhibit high affinity uptake of [3H]-dopamine into rat caudate-putamen tissue. In kind it is functional, tissue-based.
Assay [2] concerns the target T1, Sodium-dependent dopamine transporter (Rattus norvegicus, UniProt P23977). Nature of the assay: Binding affinity was determined against cocaine binding site by measuring the ability of compound to displace bound [3H]dopamine from rat caudate-putamen tissue. In kind it is tissue-based.
The target of assay [3] is T1, Sodium-dependent dopamine transporter. Description: Tested for its ability to inhibit high affinity uptake of [3H]dopamine into rat caudate-putamen tissue. The format is tissue-based.
Assay [4] shares this target. Nature of the assay: Binding affinity was determined against cocaine receptor by measuring the ability of compound to displace bound [3H]-3 from rat caudate-putamen tissue. The format is tissue-based.

T1 sequence (P23977 whole entry): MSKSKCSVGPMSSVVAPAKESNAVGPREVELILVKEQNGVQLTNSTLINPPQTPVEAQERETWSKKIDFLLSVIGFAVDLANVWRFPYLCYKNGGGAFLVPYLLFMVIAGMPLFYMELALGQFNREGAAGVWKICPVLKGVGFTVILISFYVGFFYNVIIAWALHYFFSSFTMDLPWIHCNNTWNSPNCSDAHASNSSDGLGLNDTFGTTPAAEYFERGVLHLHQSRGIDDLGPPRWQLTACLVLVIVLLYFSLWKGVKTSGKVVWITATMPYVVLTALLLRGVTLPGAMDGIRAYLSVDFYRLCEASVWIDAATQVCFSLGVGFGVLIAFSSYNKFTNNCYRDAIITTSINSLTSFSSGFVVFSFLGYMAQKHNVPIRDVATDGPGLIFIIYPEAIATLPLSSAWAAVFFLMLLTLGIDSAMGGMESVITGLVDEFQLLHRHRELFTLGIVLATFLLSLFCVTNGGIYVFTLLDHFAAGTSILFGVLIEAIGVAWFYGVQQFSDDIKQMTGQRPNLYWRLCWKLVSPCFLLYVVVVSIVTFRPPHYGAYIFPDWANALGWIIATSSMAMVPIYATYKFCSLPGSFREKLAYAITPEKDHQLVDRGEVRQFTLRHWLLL

`CN1C2CC[C@@H]1C[C@H](c1ccccc1)C2/C=C/CO` (stereo partly drawn) gave an IC50 in assay [1] of 159 nM. The Ki in assay [2] came out at 26 nM.
`CN1C2CC[C@@H]1C[C@H](c1ccccc1)C2CCCO` (stereo partly drawn) gave an inhibition constant Ki in assay [2] of 11 nM. In addition, in assay [3], it took 64 nM to reach half-maximal inhibition (IC50).
The compound `CN1C2CC[C@@H]1C[C@H](c1ccccc1)C2CC/C=C/C(=O)O` (stereo partly drawn) displayed an IC50 in assay [1] of 203 nM. In assay [2], this compound came in with a Ki of 20 nM.
In turn, `COC(=O)CCC1C2CC[C@H](C[C@@H]1c1ccccc1)N2C` (stereo partly drawn) had a Ki in assay [2] of 23 nM. For the same compound, the IC50 in assay [3] is 166 nM.
For `COC(=O)/C=C/C1C2CC[C@H](C[C@@H]1c1ccccc1)N2C` (stereo partly drawn) the same measures were 22 nM and 123 nM.
As to `COC(=O)[C@@H]1C2CC[C@H](C[C@@H]1c1ccccc1)N2C`, the Ki in assay [4] worked out at 314 nM; in assay [2] it was 33 nM. Further, in assay [3], the concentration for half-maximal inhibition (IC50) was 373 nM.
